Assay results published in the NIST ThermoML archive (doi:10.1016/j.fluid.2015.07.031).
Several values for one entry are separate records, joined by “and”; a condition that tells them apart may be missing. Equal values may be shown once. Numbers after ± are expanded uncertainties.

Columns and labels:
[1] = Closed cell (Static) method
[2] = molar heat capacity at constant pressure; conditions: 101.33 kPa, Liquid, Thin-film microcalorimeter

CC1(C)[C@H]2CC[C@]1(C)[C@H](O)C2 [(1S-endo)-1,7,7-trimethylbicyclo[2.2.1]heptan-2-ol]
[1]
Conditions | vapor or sublimation pressure
293.12 K, Crystal 2 | 0.001843 ± 0.0002 kPa
293.13 K, Crystal 2 | 0.001845 ± 0.0002 kPa and 0.001846 ± 0.0002 kPa
298.14 K, Crystal 2 | 0.003114 ± 0.00025 kPa and 0.003117 ± 0.00025 kPa
298.15 K, Crystal 2 | 0.003118 ± 0.00025 kPa
303.16 K, Crystal 2 | 0.005163 ± 0.00033 kPa and 0.005164 ± 0.00033 kPa
303.17 K, Crystal 2 | 0.005165 ± 0.00033 kPa
308.16 K, Crystal 2 | 0.008376 ± 0.00048 kPa
308.18 K, Crystal 2 | 0.008394 ± 0.00048 kPa and 0.008395 ± 0.00048 kPa
313.13 K, Crystal 2 | 0.01335 ± 0.0007 kPa
313.14 K, Crystal 2 | 0.01336 ± 0.0007 kPa and 0.01337 ± 0.0007 kPa
318.14 K, Crystal 2 | 0.02101 ± 0.00094 kPa and 0.02103 ± 0.00094 kPa
318.15 K, Crystal 2 | 0.02103 ± 0.00094 kPa
323.17 K, Crystal 2 | 0.03267 ± 0.0013 kPa
323.18 K, Crystal 2 | 0.03269 ± 0.0013 kPa
323.19 K, Crystal 2 | 0.03273 ± 0.0013 kPa
328.14 K, Crystal 2 | 0.04968 ± 0.0019 kPa and 0.04971 ± 0.0019 kPa
328.15 K, Crystal 2 | 0.04973 ± 0.0019 kPa
333.18 K, Crystal 2 | 0.07494 ± 0.0027 kPa and 0.07496 ± 0.0027 kPa and 0.07498 ± 0.0027 kPa
338.2 K, Crystal 2 | 0.1112 ± 0.0039 kPa
338.21 K, Crystal 2 | 0.1112 ± 0.0039 kPa
343.15 K, Crystal 2 | 0.1618 ± 0.0054 kPa and 0.1619 ± 0.0054 kPa
346.99 K, Crystal 2 | 0.2143 ± 0.007 kPa
347.09 K, Crystal 2 | 0.2157 ± 0.0071 kPa
347.1 K, Crystal 2 | 0.2156 ± 0.007 kPa
348.11 K, Crystal 1 | 0.2309 ± 0.0076 kPa and 0.2308 ± 0.0076 kPa and 0.2307 ± 0.0076 kPa
352.88 K, Crystal 1 | 0.3183 ± 0.01 kPa
352.89 K, Crystal 1 | 0.3183 ± 0.01 kPa and 0.3184 ± 0.01 kPa
357.96 K, Crystal 1 | 0.4417 ± 0.014 kPa and 0.4418 ± 0.014 kPa
357.97 K, Crystal 1 | 0.4424 ± 0.014 kPa
362.89 K, Crystal 1 | 0.6015 ± 0.019 kPa
362.9 K, Crystal 1 | 0.6015 ± 0.019 kPa
362.94 K, Crystal 1 | 0.6029 ± 0.019 kPa

CC(C)=CCC/C(C)=C/CO [(E)-3,7-dimethyl-2,6-octadien-1-ol]
[1], Liquid
Conditions | vapor or sublimation pressure
273.65 K | 0.000112 ± 0.00014 kPa and 0.000109 ± 0.00014 kPa and 0.000111 ± 0.00014 kPa
278.15 K | 0.00019 ± 0.00014 kPa and 0.000192 ± 0.00014 kPa and 0.000195 ± 0.00014 kPa
283.15 K | 0.000357 ± 0.00014 kPa and 0.000355 ± 0.00014 kPa and 0.000358 ± 0.00014 kPa
288.15 K | 0.000641 ± 0.00015 kPa and 0.000637 ± 0.00015 kPa and 0.000639 ± 0.00015 kPa
293.11 K | 0.001082 ± 0.00017 kPa
293.14 K | 0.001071 ± 0.00017 kPa and 0.001079 ± 0.00017 kPa
293.15 K | 0.001116 ± 0.00015 kPa and 0.001114 ± 0.00015 kPa and 0.001118 ± 0.00015 kPa
298.15 K | 0.001894 ± 0.00017 kPa [middle of 6 runs]
303.15 K | 0.003189 ± 0.0002 kPa and 0.003178 ± 0.0002 kPa and 0.00319 ± 0.0002 kPa
303.17 K | 0.003087 ± 0.00025 kPa and 0.003101 ± 0.00025 kPa
303.18 K | 0.003091 ± 0.00025 kPa
308.15 K | 0.005168 ± 0.00026 kPa and 0.00517 ± 0.00026 kPa and 0.005167 ± 0.00026 kPa
308.19 K | 0.005018 ± 0.00033 kPa and 0.005019 ± 0.00033 kPa and 0.005016 ± 0.00033 kPa
313.16 K | 0.008035 ± 0.00046 kPa and 0.008051 ± 0.00046 kPa and 0.008055 ± 0.00046 kPa
318.16 K | 0.01263 ± 0.00067 kPa and 0.01264 ± 0.00067 kPa and 0.01265 ± 0.00067 kPa
323.17 K | 0.0196 ± 0.0009 kPa and 0.01965 ± 0.0009 kPa and 0.0197 ± 0.0009 kPa
328.17 K | 0.03003 ± 0.0012 kPa and 0.0301 ± 0.0012 kPa
333.16 K | 0.04478 ± 0.0017 kPa and 0.04499 ± 0.0017 kPa and 0.04502 ± 0.0017 kPa
338.14 K | 0.06605 ± 0.0024 kPa and 0.06612 ± 0.0024 kPa and 0.06614 ± 0.0024 kPa
343.13 K | 0.09605 ± 0.0034 kPa and 0.09608 ± 0.0034 kPa and 0.0961 ± 0.0034 kPa
348.1 K | 0.1372 ± 0.0047 kPa and 0.1373 ± 0.0047 kPa
353.07 K | 0.194 ± 0.0064 kPa and 0.1941 ± 0.0064 kPa
358.04 K | 0.2693 ± 0.0087 kPa and 0.2697 ± 0.0087 kPa
362.92 K | 0.3686 ± 0.012 kPa and 0.3687 ± 0.012 kPa
362.94 K | 0.3684 ± 0.012 kPa

[2]
Conditions | molar heat capacity at constant pressure [J/K/mol]
260.8 K | 310.1 ± 3.1
265 K | 313.5 ± 3.1
270 K | 317.5 ± 3.2
275 K | 322.2 ± 3.2
280 K | 326.7 ± 3.3
285 K | 331.3 ± 3.3
290 K | 336.2 ± 3.4
295 K | 341.3 ± 3.4
300 K | 346.1 ± 3.5
305 K | 350.9 ± 3.5
310 K | 355.8 ± 3.6
315 K | 360.7 ± 3.6
320 K | 365.6 ± 3.7
325 K | 370.6 ± 3.7
330 K | 376.2 ± 3.8
335 K | 381.1 ± 3.8
340 K | 385.5 ± 3.9
345 K | 389.8 ± 3.9
350 K | 394.3 ± 3.9
355 K | 398.6 ± 4

CC(C)=CCC[C@H](C)CCO [(S)-3,7-dimethyl-6-octen-1-ol]
[1], Liquid
Conditions | vapor or sublimation pressure
273.65 K | 0.000129 ± 0.00014 kPa and 0.00013 ± 0.00014 kPa and 0.000133 ± 0.00014 kPa
278.15 K | 0.000231 ± 0.00014 kPa and 0.000228 ± 0.00014 kPa and 0.000235 ± 0.00014 kPa
283.15 K | 0.00043 ± 0.00014 kPa and 0.000432 ± 0.00014 kPa
288.15 K | 0.00077 ± 0.00015 kPa and 0.000777 ± 0.00015 kPa and 0.000779 ± 0.00015 kPa
293.15 K | 0.001361 ± 0.00016 kPa and 0.001358 ± 0.00016 kPa
293.17 K | 0.001319 ± 0.00018 kPa and 0.001331 ± 0.00018 kPa and 0.001328 ± 0.00018 kPa
298.15 K | 0.00233 ± 0.00018 kPa and 0.002328 ± 0.00018 kPa and 0.002323 ± 0.00018 kPa
298.18 K | 0.002272 ± 0.00021 kPa
298.19 K | 0.00227 ± 0.00021 kPa
298.2 K | 0.002271 ± 0.00021 kPa
303.15 K | 0.003871 ± 0.00022 kPa and 0.003875 ± 0.00022 kPa and 0.003876 ± 0.00022 kPa
303.16 K | 0.003787 ± 0.00027 kPa
303.19 K | 0.003806 ± 0.00028 kPa
303.2 K | 0.003795 ± 0.00028 kPa
308.15 K | 0.006284 ± 0.0003 kPa and 0.006296 ± 0.0003 kPa and 0.006302 ± 0.0003 kPa
308.19 K | 0.006203 ± 0.00038 kPa and 0.006213 ± 0.00038 kPa
308.21 K | 0.006198 ± 0.00038 kPa
313.2 K | 0.009899 ± 0.00055 kPa
313.21 K | 0.009904 ± 0.00055 kPa and 0.009905 ± 0.00055 kPa
318.23 K | 0.01566 ± 0.00077 kPa
318.24 K | 0.01565 ± 0.00077 kPa and 0.01566 ± 0.00077 kPa
323.22 K | 0.0243 ± 0.001 kPa
323.23 K | 0.02431 ± 0.001 kPa
328.2 K | 0.03714 ± 0.0015 kPa
328.21 K | 0.03718 ± 0.0015 kPa and 0.03714 ± 0.0015 kPa
333.23 K | 0.05589 ± 0.0021 kPa and 0.05585 ± 0.0021 kPa and 0.05576 ± 0.0021 kPa
338.19 K | 0.08215 ± 0.003 kPa
338.2 K | 0.08219 ± 0.003 kPa and 0.08218 ± 0.003 kPa
343.19 K | 0.1192 ± 0.0042 kPa and 0.1193 ± 0.0042 kPa
348.14 K | 0.1705 ± 0.0057 kPa
348.15 K | 0.1706 ± 0.0057 kPa
353.1 K | 0.2403 ± 0.0078 kPa and 0.2404 ± 0.0078 kPa
358.01 K | 0.3337 ± 0.011 kPa
358.02 K | 0.3345 ± 0.011 kPa and 0.3342 ± 0.011 kPa
362.97 K | 0.4601 ± 0.015 kPa
362.98 K | 0.4602 ± 0.015 kPa and 0.4607 ± 0.015 kPa

[2]
Conditions | molar heat capacity at constant pressure [J/K/mol]
260.2 K | 316.4 ± 3.2
265 K | 320.7 ± 3.2
270 K | 325.5 ± 3.3
275 K | 330.5 ± 3.3
280 K | 335.6 ± 3.4
285 K | 340.9 ± 3.4
290 K | 346.5 ± 3.5
295 K | 352.3 ± 3.5
300 K | 357.9 ± 3.6
305 K | 363.6 ± 3.6
310 K | 369.3 ± 3.7
315 K | 375 ± 3.8
320 K | 380.6 ± 3.8
325 K | 386.5 ± 3.9
330 K | 392.9 ± 3.9
335 K | 398.8 ± 4
340 K | 404 ± 4
345 K | 409.2 ± 4.1
350 K | 414.6 ± 4.1
355 K | 420 ± 4.2
